Results reported in US20240309004A1, “SELECTIVE CYCLIN-DEPENDENT KINASE INHIBITORS AND METHODS OF THERAPEUTIC USE THEREOF” (ViroKyne Therapeutics, LLC, priority 2021, published 2024).
Read-outs that look alike come from different tables or passages of the source.

Key:
[1] = system: VZV strain Ellen; test: VZV primary assay, strain Ellen, HFF cells; format: cell-based, Varicella Zoster Virus
Experimental: (§1) Assays were performed in monolayers as described. […] Toxicity was measured using CTG as above. […] Toxicity was measured using CTG as above.
(§2) Monolayers of HFF cells were prepared in six-well plates and incubated at 37° C. for 2 d to allow the cells to reach confluency. Media was then aspirated from the wells and 0.2 mL of virus-containing solution was added to each of three wells to yield 20-30 plaques in each well. The virus was allowed to adsorb to the cells for 1 h and the plates were agitated every 15 minutes. Compounds were diluted in assay media consisting of MEM with Earl's salts supplemented with 2% FBS, glutamine, penicillin, and gentamycin. Diluted drug was added to duplicate wells and the plates were incubated for various times, depending on the virus used. For HSV-1 and -2, the monolayers were then stained with 1% crystal violet in 20% methanol and the unbound dye removed by washing with dH20. For all other assays, the cell monolayer was stained with 1% Neutral Red solution for 4-6 h then the stain was aspirated and the cells were washed with PBS.

[2] = system: HSV2 strain G; test: HSV2 primary assay, strain G, HFF cells; format: cell-based, herpes simplex virus 2
Experimental: as §1, §2

[3] = system: HCMV strain GDGr K17 - resistant isolate; test: HCMV primary assay, resistant isolate GDGr K17, HFF cells; format: cell-based, Human Cytomegalovirus; settings: Human betaherpesvirus 5, HFF
Experimental: as §1

[4] = system: HSV1 strain DM.2 - resistant isolate; test: HSV1 primary assay, resistant isolate DM.2, HFF cells; format: cell-based, Herpes Simplex Virus 1; settings: Human alphaherpesvirus 1, HFF
Experimental: as §1, §2

[5] = system: HSV1 strain E-377; test: HSV1 primary assay, strain E-377, HFF cells; format: cell-based, Herpes Simplex Virus 1
Experimental: as §1, §2

[6] = system: HCMV strain AD169; test: HCMV primary assay (CPE), strain AD169, HFF cells; format: cell-based, Human Cytomegalovirus
Experimental: The antiviral activity of the compound against HCMV in the described Primary assay was measured by treating primary Human foreskin fibroblast (HFF) cells infected with HCMV with a range of compound concentrations—description of methods for this assay can be found in section 1.3.2.1. […] . Additional tested assay parameters in this Primary assay can be found in Table 3.2.1 and include EC90, S150, and S190 values—descriptions of those data points can be found in section 3.2.1.

[7] = system: MEF cells; test: Cytotoxicity concurrent with Murine CMV secondary assay; format: cell-based, mouse
Experimental: (§3) Compounds that were positive in the CPE assay were confirmed in a similar assay in 96-well plates according to established laboratory protocols with the compounds added 1 h post infection […]. Additionally, 12 1:3 dilutions were done instead of 6 1:5 dilutions for added accuracy. Genome copy number was determined by qPCR using primers 5′-[…]-3′, 5′ […]-3′, and probe 5′-[…]-3′.

[8] = system: Murine CMV strain Smith; test: Murine CMV primary assay, strain Smith, MEF cells; format: cell-based, Mouse Cytomegalovirus
[9] = Cytotoxicity concurrent with HCMV AD169 primary assay; format: cell-based, human; settings: human
[10] = system: Murine CMV strain Smith; test: Murine CMV secondary assay, strain Smith, MEF cells; format: cell-based, Mouse Cytomegalovirus
Experimental: as §3

[11] = system: HCMV strain AD169; test: HCMV secondary assay (yield reduction), strain AD169, HFF cells; format: cell-based, Human Cytomegalovirus; settings: Human betaherpesvirus 5, virus strain AD169, HFF cells
Experimental: (§4) Monolayers of HFF cells were prepared in 96-well plates and incubated at 37° C. for 1 d to allow the cells to reach confluency. Media was then aspirated from the wells and cells infected at a high MOI. At 1 h following infection, the inocula were removed and the monolayers rinsed with fresh media. […] Drug dilutions were added to the wells and the plates were incubated for various times, depending on the virus used and represents a single replication cycle for the virus. A duplicate set of dilutions were also performed but remained uninfected to serve as a cytotoxicity control and received equal compound exposure. Supernatants from each of the infected wells were subsequently titered using CTG in a TCID50 assay to quantify the progeny virus. For HCMV only, viral yield in the supernatants from the infected cells were titered using qPCR with HCMV primers [NT], and probe [NT].

[12] = Cytotoxicity concurrent with HCMV secondary assay; format: cell-based; settings: human
Experimental: as §4

[13] = Cytotoxicity concurrent with VZV Ellen primary assay; format: cell-based; settings: human
Experimental: as §1

[14] = Cytotoxicity concurrent with Adenovirus secondary assay; format: cell-based; settings: human, Adeno secondary assay, HFF cells
Experimental: as §4

[15] = Cytotoxicity concurrent with HSV2 primary assay; format: cell-based; settings: human
Experimental: as §1

[16] = system: Epstein-Barr virus Akata strain; test: Epstein-Barr primary assay, Akata strain, Akata cells; format: cell-based
[17] = Cytotoxicity concurrent with Adenovirus primary assay; format: cell-based; settings: human
[18] = system: Adenovirus Adenoid75 strain; test: Adenovirus secondary assay (yield reduction), Adenoid75 strain, HFF cells; format: cell-based; settings: unidentified adenovirus
Experimental: as §4

[19] = Cytotoxicity concurrent with EBV primary assay; settings: human
[20] = system: Adenovirus Adenoid75 strain; test: Adenovirus primary assay, Adenoid75 strain, HFF cells; format: cell-based; settings: unidentified adenovirus; for EC90: read-out: EC90
[21] = Cytotoxicity concurrent with HSV1 E-377 primary assay; format: cell-based; settings: human
Experimental: as §1

[22] = system: HFF cells; test: Cytotoxicity concurrent with HCMV AD169 primary assay; format: cell-based, human
[23] = Cytotoxicity concurrent with VZV 15-6-001 primary assay; format: cell-based; settings: human, HFF cell line
Experimental: as §1

[24] = system: VZV strain 15-6-001 resistant isolate; test: microbe, parasite or virus in culture; format: cell-based, Varicella Zoster Virus; settings: Human alphaherpesvirus 3, HFF
Experimental: as §1, §2

[25] = Metabolic stability in mice liver microsomes; settings: mouse, microsomes, 1 h
Experimental: Potassium phosphate buffer (Kphos) was prepared by adding 0.647 g potassium phosphate monobasic (KH2PO4) and 3.527 g potassium phosphate dibasic (K2HPO4) to 400 mL of Milli-Q water. pH of the buffer was adjusted to 7.4 and volume was made up to 500 mL.
Stock solutions of the test compounds were prepared in DMSO at a concentration of 1 mM.
To this microsomal mix 1.42 μL (1 mM) of test compound and positive control were spiked, from this mix 70 μL was transferred to 96 well plate and pre-incubated at 37° C. for 5 min. […] The plates were centrifuged at 4000 RPM for 15 min and 100 μL aliquots were submitted for analysis by LC-MS/MS.
Samples were monitored for parent compound disappearance in MRM mode using LC-MS/MS. The LC-MS/MS conditions and MRM chromatogram will be provided as per client request.
The peak area ratios of analyte versus internal standard were used to calculate the % remaining at the end of 60 minutes in presence NADPH.

[26] = target: CDK9/cyclin T1 (Homo sapiens (Human), UniProt P50750); test: Kinase activity assay, CDK9/cyclin T1; format: biochemical; settings: Table 3.1.1; 10 μM ATP; 10-dose duplicate, 3-fold serial dilution starting at 10 μM; read-out: Compound IC50 CDK9/cyclin T1
[27] = Human alphaherpesvirus 3, VZV primary assay, strain Ellen, cell line HFF, read-out: EC50
[28] = Human alphaherpesvirus 3, VZV primary assay, strain Ellen, cell line HFF, read-out: EC90
[29] = Human alphaherpesvirus 2, HSV2 primary assay, strain G, HFF cells, read-out: EC50
[30] = Human alphaherpesvirus 1, HSV1 primary assay, strain E-377, HFF cells, read-out: EC50
[31] = Human betaherpesvirus 5, HCMV primary assay, virus strain AD169, HFF cells, read-out: EC50
[32] = Human betaherpesvirus 5, HCMV primary assay, virus strain AD169, HFF cells, read-out: EC90
[33] = Human alphaherpesvirus 2, HSV2 primary assay, strain G, HFF cells, read-out: EC90
[34] = human gammaherpesvirus 4, Epstein-Barr primary assay, Akata strain, Akata cells, read-out: EC50
[35] = human gammaherpesvirus 4, Epstein-Barr primary assay, Akata strain, Akata cells, read-out: EC90
[36] = Adeno secondary assay, strain Adenoid75, HFF cells, read-out: EC90
[37] = Akata cells without virus induction
[38] = Adenovirus primary assay, HFF cells, Adenoid75 strain, read-out: EC50
[39] = Adenovirus primary assay, HFF cells, Adenoid75 strain
[40] = Human alphaherpesvirus 1, HSV1 primary assay, strain E-377, HFF cells, read-out: EC90
[41] = Human betaherpesvirus 5, AD169, HFF
[42] = human gammaherpesvirus 4, Akata

CDK9/cyclin T1, sequence (P50750 whole entry): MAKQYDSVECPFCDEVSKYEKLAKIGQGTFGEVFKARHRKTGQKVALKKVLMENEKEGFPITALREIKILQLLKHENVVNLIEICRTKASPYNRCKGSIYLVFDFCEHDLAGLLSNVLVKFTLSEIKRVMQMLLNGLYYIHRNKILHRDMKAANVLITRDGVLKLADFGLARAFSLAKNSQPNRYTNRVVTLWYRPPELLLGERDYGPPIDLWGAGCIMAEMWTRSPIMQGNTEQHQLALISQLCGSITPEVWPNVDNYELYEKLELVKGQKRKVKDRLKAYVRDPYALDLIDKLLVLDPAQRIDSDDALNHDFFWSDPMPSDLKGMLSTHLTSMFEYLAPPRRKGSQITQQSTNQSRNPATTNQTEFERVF
CDK9/cyclin T1, sequence (O60563 whole entry partner): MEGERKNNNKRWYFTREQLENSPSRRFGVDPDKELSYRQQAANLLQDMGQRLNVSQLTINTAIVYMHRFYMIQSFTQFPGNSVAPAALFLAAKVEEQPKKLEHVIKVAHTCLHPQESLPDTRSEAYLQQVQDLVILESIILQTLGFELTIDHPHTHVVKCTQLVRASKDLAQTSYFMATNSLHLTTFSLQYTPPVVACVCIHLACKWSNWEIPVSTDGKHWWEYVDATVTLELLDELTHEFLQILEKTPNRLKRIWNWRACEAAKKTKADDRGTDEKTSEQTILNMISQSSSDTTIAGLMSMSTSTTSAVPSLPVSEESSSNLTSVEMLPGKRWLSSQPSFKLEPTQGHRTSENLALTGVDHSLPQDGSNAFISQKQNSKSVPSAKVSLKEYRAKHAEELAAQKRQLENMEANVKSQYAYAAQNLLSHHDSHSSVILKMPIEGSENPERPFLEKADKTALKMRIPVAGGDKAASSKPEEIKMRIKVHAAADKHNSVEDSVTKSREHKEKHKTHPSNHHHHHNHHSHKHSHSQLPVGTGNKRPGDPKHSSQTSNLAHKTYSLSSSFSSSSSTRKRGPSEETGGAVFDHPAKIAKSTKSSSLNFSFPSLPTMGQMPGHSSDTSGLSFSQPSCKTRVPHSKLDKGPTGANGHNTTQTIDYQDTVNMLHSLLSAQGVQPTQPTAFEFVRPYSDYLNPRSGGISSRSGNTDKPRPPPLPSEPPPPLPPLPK

Nc1nc2c(ncn2COCCO)c(=O)[nH]1 [Acyclovir, reference compound]
EC50 [1, 27]: 5.59 µM | EC90 [1, 28]: 69.4 µM | EC50 [2, 29]: 2.56 µM | EC50 [3]: 16.8 µM | EC50 [4]: 150 µM | EC50 [5, 30]: 2.56 µM

Nc1nc(O)c2ncn(COC(CO)CO)c2n1 [Ganciclovir, ganciclovir, reference compound]
EC50 [6, 31]: 1.78 µM | EC90 [6, 32]: 5.67 µM | CC50 [7]: 84.8 μ.M | EC50 [8]: 5.48 µM | EC90 [8]: 24.9 µM | CC50 ([9]; CC50): 150 µM | EC50 [10]: 7.4 µM | EC90 [10]: 26 µM | EC90 [11]: 3.88 µM | CC50 [12]: 20 µM

Fc1ccc2c(c1)nn1cnc(NC3CCCOCC3)cc21 (centres unmarked) [VKT-015]
CC50 [13]: 39.7 µM | EC50 [1, 27]: 10 µM | EC90 [1, 28]: 10 µM | EC50 [6, 31]: 10 µM | EC90 [6, 32]: 10 µM | EC50 [2, 29]: 50 µM | EC90 [2, 33]: 50 µM | CC50 ([14]; uninfected HFF cell monolayers): 48.6 µM | CC50 [15]: 50 µM | CC50 ([9]; CC50): 27.7 µM | EC50 [16, 34]: 8.73 µM | EC90 [16, 35]: 29.9 µM | CC50 [17]: 41.8 µM | EC90 [18, 36]: 17.5 µM | CC50 at 72 h [19, 37]: 50 µM | EC50 [20, 38]: 7.13 µM | EC90 [20, 39]: 10 µM | EC50 [5, 30]: 50 µM | EC90 [5, 40]: 50 µM | CC50 [21]: 50 µM

O=S1(=O)CCC(Nc2cc3c4ccc(F)cc4nn3cn2)CC1 [VKT-018]
CC50 [13]: 50 µM | EC50 [1, 27]: 50 µM | EC90 [1, 28]: 50 µM | EC50 [6, 31]: 50 µM | EC90 [6, 32]: 50 µM | EC50 [2, 29]: 50 µM | EC90 [2, 33]: 50 µM | CC50 ([14]; uninfected HFF cell monolayers): 97.1 µM | CC50 [15]: 50 µM | CC50 ([9]; CC50): 50 µM | EC50 [16, 34]: 45.7 µM | EC90 [16, 35]: 50 µM | CC50 [17]: 50 µM | EC90 [18, 36]: 16.4 µM | CC50 at 72 h [19, 37]: 50 µM | EC50 [20, 38]: 3.69 µM | EC90 [20, 39]: 50 µM | EC50 [5, 30]: 50 µM | EC90 [5, 40]: 50 µM | CC50 [21]: 50 µM

NC(=O)CN1CCC(Nc2cc3c4ccc(F)cc4nn3cn2)CC1 [VKT-026]
CC50 [13]: 22 µM | EC50 [1, 27]: 10 µM | EC90 [1, 28]: 10 µM | EC50 [2, 29]: 10 µM | EC90 [2, 33]: 50 µM | EC50 [3]: 0.87 µM | EC90 [3]: 10 µM | CC50 [7]: 50 μ.M | CC50 [15]: 29.4 µM | CC50 ([22]; human): 26.9 µM | EC50 [10]: 0.17 µM | EC90 [10]: 5.38 µM | CC50 [17]: 24.7 µM | EC50 [20, 38]: 7.71 µM | EC90 [20, 39]: 50 µM | EC50 [5, 30]: 10 µM | EC90 [5, 40]: 10 µM | CC50 [21]: 10 µM

OCC1CCC(Nc2cc3c4ccc(F)cc4nn3cn2)CC1 (centres unmarked) [VKT-029]
CC50 ([13]; VZV Ellen primary assay, cell line HFF, read-out: CC50): 45.1 µM | EC50 ([1]; Human alphaherpesvirus 3, HFF): 4.02 µM | EC90 ([1]; Human alphaherpesvirus 3, HFF): 10 µM | EC50 [6, 41]: 50 µM | EC90 [6, 41]: 50 µM | EC50 ([2]; Human alphaherpesvirus 2, HFF): 50 µM | EC90 ([2]; Human alphaherpesvirus 2, HFF): 50 µM | CC50 [14]: 100 µM | CC50 ([15]; HSV2 primary assay, HFF cells, read-out: CC50): 50 µM | CC50 ([9]; HCMV primary assay, HFF cells, read-out: CC50): 50 µM | CC50 [23]: 47.2 µM | EC50 [24]: 10 µM | EC90 [24]: 10 µM | EC50 [16, 42]: 4.79 µM | EC90 [16, 42]: 12.1 µM | CC50 ([17]; Adenovirus primary assay, HFF cells, read-out: CC50): 50 µM | EC90 ([18]; HFF): 3.91 µM | CC50 at 72 h [19]: 50 µM | EC50 ([20]; HFF): 5.12 µM | EC50 ([5]; Human alphaherpesvirus 1, HFF): 50 µM | EC90 ([5]; Human alphaherpesvirus 1, HFF): 50 µM | CC50 ([21]; HSV1 E-377 primary assay, HFF cells, read-out: CC50): 50 µM

N[C@H]1CC[C@H](Nc2cc3c4ccc(F)cc4nn3cn2)CC1 [VKT-511, (1r,4r)-N1-(7-fluoropyrimido[1,6-b]indazol-3-yl)cyclohexane-1,4-diamine]
EC50 ([6]; HCMV primary assay, virus strain AD169, HFF cells, read-out: EC50): 2 µM | EC90 ([6]; HCMV primary assay, virus strain AD169, HFF cells, read-out: EC90): 2 µM | % Remaining at 60 min [25]: 107% | CC50 [22]: 6.98 µM | IC50 [26]: 0.0465 µM
